pIC50: −log10 of the molar value. Read-outs that look alike come from different tables or passages of the source.
Assays:
AChE = test system: AChE; set-up: method as in PMID 31250747; details: Figure 1; cited from earlier work
PDE9 = details: cited from earlier work
BuChE = test system: BuChE; set-up: method as in PMID 31250747; details: Figure 1; cited from earlier work
[1] = Antioxidant activity, ORAC-FL method; details: Trolox as standard
Description: The modified Oxygen Radical Absorbance Capacity Fluorescein (ORAC-FL) method was used for antioxidant activity test. In brief, the mixture of test compounds (20 μL) and fluorescein (120 μL, final concentration of 150 nM) was added into a black 96-well plate and incubated for 15 min at 37 °C. Then, 60 μL of 2,2′-azobis(2-amidinopropane) dihydrochloride (AAPH) solution (12 mM) was added rapidly to induce the reaction. The fluorescence with an excitation wavelength of 485 nm and emission at 535 nm was measured in Spectrafluor Plus plate reader (Tecan, Crailsheim, Germany) every minute for 4 h. Integration of the area under the curve (AUC) was […] 1 to 8 μM Trolox was used as a standard. Each compound was tested at 1–10 μM at least in three independent assays. The ORAC-FL values of each compound were calculated according to Equation (1) and expressed as Trolox equivalents.(1) ORAC-FL value=AUCsample−AUCblank/AUCTrolox−AUCblank×ConcentrationTrolox/Concentrationsample

[2] = molecular target: T1, PDE9 (catalytic domain of PDE9A2) (Homo sapiens, UniProt O76083); experiment: Enzymatic assay against PDE9 (3H-cGMP hydrolysis, scintillation counting); type: biochemical; details: 0.25 h, read-out: Inhibition ratio against PDE9; for inhibition at 0.01 µM: at a concentration of 0.01 μM; for inhibition at 0.1 µM: at a concentration of 0.1 μM
T1 construct: PDE9 recombinant catalytic domain (amino acid 181–506); made in house; host or cells: E. coli BL21 (Codonplus)
Description: In brief, E. coli strain BL21 (Codonplus), which carrying with recombinant pET-PDE9A2 plasmid, was grown in LB medium (containing 100 μg/mL ampicillin and 0.4% glucose) at 37 °C until an OD600 achieved 0.6–0.8. Then, the temperature was turned down to 15 °C, and 0.1 mM iso-propyl-b-D-thiogalactopyranoside was added to LB medium to induce the expression of PDE9A2 protein. Bacteria were induced for 20 h and collected for purified PDE9A2 recombinant protein by a Ni-NTA column (Qiagen, Venlo, The Netherlands).
As for the enzymatic assays, ^3H-cGMP (20,000–30,000 cpm, GE Healthcare), the substrate for enzymatic assays against PDE9A2, were diluted in an assay buffer (containing 50 mM Tris-HCl (pH 8.0), 10 mM MgCl2, and 1 mM DTT). And then, the substrate ^3H-cGMP, catalytic domain of PDE9A2, and different concentrations of tested compounds were incubated at room temperature for 15 min. To terminate the reaction, 0.2 M ZnSO4 and 0.2 N Ba(OH)2 were added to the mixture, leaving unreacted ^3H-cGMP in the supernatant. […] Each compound was measured at a minimum of eight concentrations for the IC50 calculation and repeated at least three times.
4.Enzymatic assays against PDE9
The assay buffer contains 50 mM Tris-HCl (pH 8.0), 10 mM MgCl2 or 4 mM MnCl2, 1 mM DTT, and 10-20 nM 3H-cGMP (15000−30000 cpm/assay, CPM control). The reaction was carried out at room temperature for 15 min and then terminated by addition of 0.2 M ZnSO4. The reaction product 3H-GMP was precipitated out by […], whereas unreacted 3H-cGMP remained in the supernatant. The radioactivity in the supernatant was measured in 2.5 […]
(CPMenzyme). For the measurement of IC50 of inhibitors, at least seven concentrations of inhibitors were used in the presence of 3H-cGMP. The enzyme concentration in a range of 10− 100 ng/mL, which hydrolyzed 50- 70% of the substrate, was chosen for each inhibitory assay. The radioactivity was recorded as CPMinhibitor. The IC50 values for PDE9 were calculated using a nonlinear regression analysis.
Inhibition = […] × 100%

HDAC6 = test system: HDAC6; set-up: method as in PMID 31441641; details: Figure 1; cited from earlier work
[3] = Figure 1, current PDE9 inhibitors

T1 sequence (O76083 241-566): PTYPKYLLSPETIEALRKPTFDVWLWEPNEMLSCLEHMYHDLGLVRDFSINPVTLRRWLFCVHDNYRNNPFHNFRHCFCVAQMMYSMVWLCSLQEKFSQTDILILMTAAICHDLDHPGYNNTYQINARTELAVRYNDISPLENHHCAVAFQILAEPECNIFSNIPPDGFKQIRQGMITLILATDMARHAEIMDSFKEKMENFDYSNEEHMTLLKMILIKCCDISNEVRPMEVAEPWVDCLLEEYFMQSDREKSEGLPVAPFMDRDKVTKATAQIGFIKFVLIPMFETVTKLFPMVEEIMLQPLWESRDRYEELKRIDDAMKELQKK

Row | Structure (SMILES) | pIC50 (PDE9; [3]) | ORAC [1] | inhibition at 0.01 µM [2] [%] | inhibition at 0.1 µM [2] [%] | also measured
1 | O=c1[nH]c(COCCC2CCN(Cc3ccccc3)CC2)nc2c1cnn2C1CCCC1 [Compound 5] | 6.55 |  |  |  | pIC50 (AChE): 6.65
2 | COc1cc(CNc2nc3c(cnn3C3CCCC3)c(=O)[nH]2)ccc1OC(=O)N(C)C [Compound 4] | 7.77 |  |  |  | pIC50 (BuChE): 6.02
3 | O=c1[nH]c(Cc2ccccn2)nc2c1cnn2C1CCOCC1 [Compound 2, Osoresnontrine] | 7.19 |  |  |  | 
4 | CC(Nc1nc2c(cnn2C2CCCC2)c(=O)[nH]1)c1ccc(Cl)cc1 (centres unmarked) [Compound C33] |  |  |  |  | pIC50 (PDE9; previously reported): 7.80
5 | COc1ccc2[nH]nc(CC(C)Nc3nc4c(cnn4C4CCCC4)c(=O)[nH]3)c2c1 (centres unmarked) [Compound 17h, 1-cyclopentyl-6-((1-(5-methoxy-1H-indazol-3-yl)propan-2-yl)amino)-1,5-dihydro-4H-pyrazolo[3,4-d]pyrimidin-4-one] |  | 0.22 ± 0.12 μmol of Trolox equiv/μmol tested compound | 65 | 69 | 
6 | C[C@@H]1CN(Cc2ccc(C(=O)NO)cc2)C[C@H]1c1nc2c(cnn2C2CCCC2)c(=O)[nH]1 [Compound 6] | 6.97 |  |  |  | pIC50 (HDAC6): 7.40
7 | CC(CC1CNc2ccccc21)Nc1nc2c(cnn2C2CCCC2)c(=O)[nH]1 (centres unmarked) [Compound 17f, 1-cyclopentyl-6-((1-(indolin-3-yl)propan-2-yl)amino)-1,5-dihydro-4H-pyrazolo[3,4-d]pyrimidin-4-one] |  | 0.66 ± 0.04 μmol of Trolox equiv/μmol tested compound | 59 | 67 | 
8 | C[C@@H](NCc1c[nH]c2ccccc12)c1nc2c(cnn2C2CCCC2)c(=O)[nH]1 [Compound 18a, (R)-6-(1-(((1H-indol-3-yl)methyl)amino)ethyl)-1-cyclopentyl-1,5-dihydro-4H-pyrazolo[3,4-d]pyrimidin-4-one] |  | 0.60 ± 0.06 μmol of Trolox equiv/μmol tested compound | 46 | ~50 | 
9 | CC(Cc1c[nH]c2ccccc12)Nc1nc2c(cnn2C2CCCC2)c(=O)[nH]1 (centres unmarked) [Compound 17a, 6-((1-(1H-indol-3-yl)propan-2-yl)amino)-1-cyclopentyl-1,5-dihydro-4H-pyrazolo[3,4-d]pyrimidin-4-one] |  | 0.37 ± 0.04 μmol of Trolox equiv/μmol tested compound | 68 | 78 | 
